Laboratory results reported in patent US20260183297A1, “SELECTION OF PATIENTS FOR THE TREATMENT OF FADS1-MEDIATED DISEASES OR DISORDERS USING FADS-1 INHIBITORS” (AMGEN INC., priority 2022, published 2026).
Entries after “also recorded” stand apart in the source; their conditions may differ.

Tests used:
[1] = Chronic FADS1 inhibition study in DIO mice (body weight, food intake); type: in vivo, mouse; details: for lower body weight relative to vehicle-treated mice: 54 days
Experimental: (§1) Body weight was measured daily and used for dosing calculations. A 4-hour fasted retro-orbital blood sample was collected at baseline and day 46 and used for insulin, cholesterol, and triglyceride analysis. A 3-day average food consumption was measured on days 39-41. All animals received 0.1 ml of 2 mM ^13C5-DGLA by IP injection 23.5 hours after the last PO gavage with the different treatment to allow for 30 minutes of exposure prior to necropsy to determine the residual in vivo FADS1 activity.

human FADS1 = molecular target: T1, human FADS1 (Homo sapiens, UniProt O60427); test: In vitro FADS1 activity assay (HEK 293 cells with FADS1 BacMam, 13C5-DGLA substrate); type: cell-based; details: in vitro; read-out: half-maximal inhibitory concentration (IC50) against human FADS1
T1 construct: expressed in transfected cells; host or cells: HEK 293 cells transduced with FADS1 BacMam (MOI 25)
Experimental: HEK 293 cells in Dulbecco's Modified Eagle's medium (DMEM), 10% fetal bovine serum (FBS), 1× penicillin-streptomycin-glutamine (PSG) were mixed with FADS1 BacMam or FADS2 BacMam reagents at multiplicity of infection (MOI) ratio of 25 and plated in a in 96-well poly-D-lysine-coated plate. Plates were incubated in a 37° C., 5% CO2 for 24 hours. Cells were washed with DPBS and cells were incubated with 90 ml of compound dilution in DPBS at 5% CO2, 37° C. for 20 minutes. Ten L of the substrate, ^13C5-DGLA (FADS1), or 13C-LA (FADS2) diluted in DPBS were added to the cells and incubated at 5% CO2, 37° C. for 30 minutes (FADS1) or 45 minutes (FADS2). Cells were then washed with DPBS and 50 μL of 2N NaOH were added to each well and incubated in a 65° C. oven for 1 hour for the saponification reaction. […] Samples were then subjected to LC-MS/MS detection for the following analytes for the FADS1 reaction: ^13C5-DGLA and ^13C5-AA or the following analytes for the FADS2 reaction: ^13C18-LA, ^13C18-GLA, ^13C18-DGLA and ^13C18-AA. Samples were injected onto a Poroshell 120 EC-C18 3.0×50 mm, 1.9 um id column (Agilent, Santa Clara, CA).
The analyte peak areas were quantified by using the Analyst software (SCIEX, Framingham, MA). The percent of substrate to product conversion relative to untreated control were calculated (percent of control [POC]). […]

[2] = Plasma lipid, glucose, insulin and metabolic profile measurements in DIO mice; type: in vivo, mouse; details: for Alanine Aminotransferase / Cholesterol / HDL-Cholesterol / Insulin / LDL-Cholesterol / Non-esterified fatty acids / Triglycerides: DIO mice plasma; for Alanine Aminotransferase / Cholesterol / HDL-Cholesterol / Insulin / LDL-Cholesterol / Non-esterified fatty acids / Triglycerides / C-reactive Protein / Glucose / Serum Amyloid A: mean ± SD
Experimental: as §1
Mice were bled consciously from the retro-orbital sinus, and blood was collected into EDTA plasma tubes. Plasma lipids were measured using the Olympus AU400e Chemistry Analyzer (Olympus America, Center Valley, PA). Plasma insulin was measured using the ALPCO mouse high range insulin ELISA (Alpco, Salem, NH). Blood glucose was measured using an AlphaTRAK blood glucometer (Zoetis, Parsippany, NJ).

[3] = test system: liver, EPI WAT and ING WAT; test: RNA-Seq analysis of liver, EPI WAT and ING WAT; type: in vivo, mouse; details: 30 mg/kg, 54 days
Experimental: RNA was extracted by using the Qiagen RNeasy 96 Universal kit (QIAGEN, Germantown, MD). The concentration and quality of the isolated RNA samples were assessed and determined on an Agilent 4200 TapeStation system and had RNA integrity numbers more than 9.1. Adipose or liver RNA (250 ng) was used to prepare a cDNA library by using a protocol modified from the Illumina TruSeq Stranded mRNA kit (Illumina, San Diego CA). Briefly, after polyA^+ RNA selection, fragmentation, and priming, the fragmented RNA was transcribed to cDNA in the reaction of reverse transcription containing SuperScript™ II (Thermo Fisher Scientific—Invitrogen™, Waltham, MA) and RNase-out (Thermo Fisher Scientific—Invitrogen™, Waltham, MA) and, sequentially, the products of the first strand cDNA synthesis reaction were converted to double-stranded cDNAs and subjected to end repair, A-tailing, and adapter ligation by following the commercial instruction. The constructed libraries were amplified and barcoded using the PCR program: a denaturation step at 98° C. for 30 seconds, 15 cycles of 95° C. for 10 seconds, 60° C. for 30 seconds, and 72° C. for 30 seconds, and a 72° C. extension cycle for 5 minutes followed by a hold step at 4° C. Libraries were sequenced to a minimum depth of 30 million paired end reads on an Illumina HiSeq4000 with the 100 nt or 150 nt read length.
RNA-Seq sequencing reads of the mouse samples were aligned and processed using OSA aligner, which is implemented in the OmicSoft Array Suite (QIAGEN OmicSoft, Cary, NC), based on mouse genome version GRCm38 and gene model GENCODE v19. Read count quantification was performed to the gene level based on OmicSoft implementation of RSEM. Downstream analysis using the read count output was performed following the standard RNA-seq workflow of DESeq2 R/Bioconductor package. Briefly, raw read count was transformed and nonnalized using the Variance Stabilizing Transformation (VST) method. Principal component analysis (PCA) was carried out by the plotPCA function using top 1000 variable genes. Differential expression analysis based on the negative binomial distribution was performed using the DESeq function.
Gene expression was represented as normalized fragments per kilobase per million reads (FPKM). FPKM values were further normalized with a refinement of the commonly employed upper-quartile method that sets the FPKM to a value of 10 at the 70th percentile. Lowly expressed genes with fewer than five samples at FPKM≥1 were removed. Genes with Benjamini-Hochberg (BH)-adjusted P value <0.01 and fold change ≥2 or ≤0.5 were selected as DEGs. Volcano plots of differential expression analysis results were made using EnhancedVolcano R package (github.com/kevinblighe/EnhancedVolcano).
The selected DEGs were annotated by IPA (QIAGEN, Redwood City, CA) on canonical pathways and toxicity lists. Gene expression enrichment in Gene Ontology (GO), KEGG was analyzed by using Cluster Profiler R package with default parameters. Deconvolution analysis was performed using MuSiC software v0.2.0 to estimate relative cell type abundance in each mouse bulk tissue samples. The Tabula Muris single-cell RNA-seq data set was used as a reference for MuSiC algorithm. The analysis was done separately for each tissue types including EPI and ING WAT, and liver.

[4] = DIO mice, 10 mg kg^−1, 46 or 54 days
[5] = DIO mice, 30 mg kg^−1, 46 or 54 days
[6] = DIO mice, 10 and 30 mg/kg daily oral

T1 sequence (O60427 whole entry): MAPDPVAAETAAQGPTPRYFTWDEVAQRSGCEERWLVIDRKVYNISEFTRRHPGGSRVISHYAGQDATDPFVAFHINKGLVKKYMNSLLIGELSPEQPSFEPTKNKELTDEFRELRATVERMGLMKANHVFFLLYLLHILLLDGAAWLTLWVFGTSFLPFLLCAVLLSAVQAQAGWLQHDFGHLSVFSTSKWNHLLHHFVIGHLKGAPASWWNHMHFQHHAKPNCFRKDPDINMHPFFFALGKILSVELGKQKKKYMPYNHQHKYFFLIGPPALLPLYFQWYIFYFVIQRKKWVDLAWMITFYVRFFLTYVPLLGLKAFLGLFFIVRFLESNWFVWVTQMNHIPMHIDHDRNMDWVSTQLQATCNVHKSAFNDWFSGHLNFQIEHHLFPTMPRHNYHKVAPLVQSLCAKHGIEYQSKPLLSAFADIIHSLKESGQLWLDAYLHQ

COc1ccn2c(=O)c(-c3cnn(CC(F)(F)C(F)(F)F)c3)c(C(F)(F)F)nc2c1 [Compound A, 8-methoxy-3-(1-(2,2,3,3,3-pentafluoropropyl)-1H-pyrazol-4-yl)-2-(trifluoromethyl)-4H-pyrido[1,2-a]pyrimidin-4-one]
lower body weight relative to vehicle-treated mice ([1]; 10 mg/kg daily oral): 17.9% | lower body weight relative to vehicle-treated mice ([1]; 30 mg/kg daily oral): 21.1% | food intake ([1]; 10 and 30 mg/kg daily oral): without affecting food intake; also recorded: No significant differences | IC50 (human FADS1): 3 nM | plasma liver enzyme alanine aminotransferase (ALT) ([2]; Compound A-treated DIO mice): decreased | Alanine Aminotransferase ([2]; 10 mg kg^−1, 46 or 54 days): 142.8 ± 26.6 U L^−1 | Cholesterol ([2]; 10 mg kg^−1, 46 or 54 days): 173.0 ± 11.9 mg/dL | HDL-Cholesterol ([2]; 10 mg kg^−1, 46 or 54 days): 86.4 ± 8.0 mg/dL | Insulin ([2]; 10 mg kg^−1, 46 or 54 days): 3.7 ± 3.2 ng/mL | LDL-Cholesterol ([2]; 10 mg kg^−1, 46 or 54 days): 22.4 ± 2.3 mg/dL | Non-esterified fatty acids ([2]; 10 mg kg^−1, 46 or 54 days): 0.9 ± 0.1 mEq L^−1 | Triglycerides ([2]; 10 mg kg^−1, 46 or 54 days): 77.8 ± 13.7 mg/dL | Alanine Aminotransferase ([2]; 30 mg kg^−1, 46 or 54 days): 102.0 ± 32.4 U L^−1 | Cholesterol ([2]; 30 mg kg^−1, 46 or 54 days): 165.3 ± 15.6 mg/dL | HDL-Cholesterol ([2]; 30 mg kg^−1, 46 or 54 days): 85.7 ± 5.5 mg/dL | Insulin ([2]; 30 mg kg^−1, 46 or 54 days): 2.2 ± 1.3 ng/mL | LDL-Cholesterol ([2]; 30 mg kg^−1, 46 or 54 days): 19.7 ± 2.5 mg/dL | Non-esterified fatty acids ([2]; 30 mg kg^−1, 46 or 54 days): 0.7 ± 0.1 mEq L^−1 | Triglycerides ([2]; 30 mg kg^−1, 46 or 54 days): 63.3 ± 9.7 mg/dL | C-reactive Protein [2, 4]: 43.6 ± 9.7 µg/mL | Glucose [2, 4]: 170.3 ± 22.3 mg/dL | Serum Amyloid A [2, 4]: 5.2 ± 1.3 µg/mL | plasma insulin decrease vs vehicle ([2]; DIO mice, 10 mg/kg daily oral): 74.9% | C-reactive Protein [2, 5]: 37.1 ± 6.5 µg/mL | Glucose [2, 5]: 168.6 ± 23.2 mg/dL | Serum Amyloid A [2, 5]: 4.8 ± 1.8 µg/mL | lower plasma triglycerides vs vehicle ([2]; DIO mice, 30 mg/kg daily oral): 41.6% | plasma insulin decrease vs vehicle ([2]; DIO mice, 30 mg/kg daily oral): 84.7% | plasma cholesterol [2, 6]: lowered; also recorded: trended lower | plasma triglycerides [2, 6]: dose-dependent decreases | downregulated pathways (IPA) in the liver ([3]; Compound A-treated WT DIO mice): downregulation of Acute Phase Response. AMPK Signaling, and Senescence pathways | upregulated pathways (IPA) in the liver ([3]; Compound A-treated WT DIO mice): upregulation of Calcium Signaling, PPARα/RXRα Activation, and Xenobiotic metabolism AHR Signaling pathways | Insulin Receptor Signaling pathway (IPA) in EPI WAT ([3]; DIO mice): increased | fatty acid oxidation-related genes (Cpt1a, Acox1, Acaa1a, Fgf21) in the liver ([3]; DIO mice): increased | inflammation-related genes (Cc12, Cd14, Cd68) in ING WAT ([3]; DIO mice): decreased | lipolysis (Lipe, Mg11, Pnpla2) and insulin-signaling genes (Insr, Irs1, Slc2a4) in EPI WAT ([3]; DIO mice): increased | cellular composition of EPI WAT (immune cell population) ([3]; DIO mice, relative to WT vehicle): decreases in T cells, B cells, and natural killer cells
